Experiments:
[1] = system: human peripheral blood lymphocytes (HPBL)
Protocol: The clastogenic potential of esketamine was evaluated in the in vitro mammalian chromosome aberration test using human peripheral blood lymphocytes (HPBL) in both the absence and presence of an induced metabolic activation system (the 9000 g supernatant [S9] microsomal fraction of liver homogenate from rats exposed to Aroclor-1254).
The study was conducted in 2 phases, with a preliminary toxicity test used to determine the appropriate concentrations for the definitive chromosomal aberration assay. Water was used as a negative (vehicle) control. Toxicity (defined as ≥45% reduction in MI relative to the vehicle control) was evaluated at 9 concentrations, ranging from 0.0238 to 238 μg/ml, after exposure of HPBL to esketamine for 20 hours in the absence of S9 activation, or for 4 hours, either in the presence or absence of S9 activation, followed by a 16-hour recovery period.
The definitive chromosome aberration assay evaluated HPBL cells after exposure to esketamine for 20 hours in the absence of S9 activation, or for 4 hours, either in the presence of absence of S9 activation, followed by a 16-hour recovery. Positive controls for chromosomal aberrations in non-activated and S9-activated evaluations, respectively, consisted of mitomycin C (MMC, 0.6 and 0.3 μg/mL for the 4- and 20-hour exposures, respectively) and cyclophosphamide (CP, 2.5, 5, and 7.5 μg/mL). […] Initially, the doses selected for evaluation of chromosomal aberrations were 60, 120, and 238 μg/mL for the non-activated 4- and 20-hour treatment conditions; and 30, 60, and 200 μg/mL for the S9-activated 4-hour treatment condition.

[2] = system: animal models of depression; details: cited from earlier work
[3] = Single dose, randomized, open-label crossover study, pharmacokinetics; details: esketamine hydrochloride, 15 subjects
Excerpt: A randomized, open-label 4-way crossover study in 16 healthy male and female subjects was held wherein said subjects were placed in a randomly assigned order and administered esketamine. Each subject was assigned to 1 of 4 treatment sequences according to a randomization code such that 4 subjects were assigned to each treatment sequence. There was a wash-out period of at least 7 days between dosing periods with dosing consisting of either oral or intravenous esketamine hydrochloride. The study consisted of an eligibility screening period of 28 days, 4 study periods involving administration of a single dose of esketamine hydrochloride followed by safety assessments with blood sampling for PK purposes up to 72 hours after study drug administration, discharge at 72 hours after study drug administration and a follow-up visit 7-14 days after the last PK blood sample was taken on Day 4.

[4] = Repeated dose 28 day study, toxicokinetics; details: male rats, Day 28
Protocol: The objective of the study was to assess the potential toxicity, neurobehavioral effects, and toxicokinetics (TK) of esketamine when administered orally, via gavage, to Sprague Dawley rats for 28 days and to evaluate recovery during a 14-day drug-free period. Fifty male and 50 female rats were randomized into 4 groups (15/sex/Groups 1 and 4; 10/sex/Groups 2 and 3). Esketamine was administered via oral gavage once daily for 28 consecutive days to males at 0 (vehicle control), 6, 10 or 30 mg/kg/day and females at 0 (vehicle control), 2, 10 or 20 mg/kg/day in a dose volume of 10 mL/kg. Animals were observed until euthanized and necropsied on Day 29 (10/sex/group) or 43 (5/sex from Groups 1 and 4). Toxicity was evaluated based on mortality, clinical observations, body weights, food consumption, ophthalmology, motor activity, functional observational battery, clinical pathology (clinical chemistry, hematology, coagulation and urinalysis), organ weights, anatomic (macroscopic or microscopic) pathology. Toxicokinetic animals (3/sex/Group 1; 6/sex/Groups 2, 3, and 4) were similarly dosed and bled on Day 1 and during Week 4 for toxicokinetic analysis.

liver of Crl:CD(SD) rats = experiment: In vivo single cell gel electrophoresis (comet) assay, DNA strand breaks in the liver
[5] = system: human peripheral blood lymphocytes (HPBL); remark: listed apart in the source
Protocol: The study was conducted in 2 phases, with a preliminary toxicity test used to determine the appropriate concentrations for the definitive chromosomal aberration assay. Water was used as a negative (vehicle) control. In both phases, the cells were treated for 3 and 21 hours in the absence of S9 mix and for 3 hours in the presence of S9 mix. The mitotic index was assessed for all cultures to determine cytotoxicity. Ten concentrations, ranging from 2.62 to 260.16 μg/mL, were evaluated in the preliminary toxicity test. […] S-Norketamine concentrations of 93.66, 156.10 or 260.16 μg/mL were selected for metaphase analysis.

Which “structural aberrations, % of the cells” value ([1]; S9-activated system, positive control 2.5, 5 and 7.5 μg/mL) does the source give for O=P1(N(CCCl)CCCl)NCCCO1 (stereo not shown) [CP, cyclophosphamide] here?
Its value is 10.7%.

For CN[C@@]1(c2ccccc2Cl)CCCCC1=O [(R)-ketamine, (2R)-2-(2-Chlorophenyl)-2-(methylamino) cyclohexanone], which “psychotomimetic side effects and abuse liability” value [2] is on record?
The value was “without psychotomimetic side effects and abuse liability”.

For CN[C@]1(c2ccccc2Cl)CCCCC1=O [esketamine, (2S)-2-(2-Chlorophenyl)-2-(methylamino) cyclohexanone], which “Toxicity (≥45% reduction in MI relative to the vehicle control)” value [1] is on record?
Its value is “not observed at any dose”.

What about the “doses at which cytotoxicity (≥45% reduction in mitotic index) was observed” value ([1]; human) of the same compound?
The value was no less than 200 µg/mL.

What about the “AUC0-inf, Geometric mean” value ([3]; 0.3 mg/kg iv) of the same compound?
The value was 257.14 ng·h/mL.

What about the “AUC0-t, Geometric mean” value ([3]; 0.3 mg/kg iv) of the same compound?
The value was 249.15 ng·h/mL.

And the “Cmax, Geometric mean” value ([3]; 0.3 mg/kg iv)?
The value was 94.50 ng/mL.

And the “t1/2, Geometric mean” value ([3]; 0.3 mg/kg iv)?
The value was 10.16 h.

And the “tmax, Median” value ([3]; 0.3 mg/kg iv)?
The value was 1.00 h.

What about the “AUC0-inf, Geometric mean” value ([3]; 20 mg oral solution) of the same compound?
Its value is 25.82 ng·h/mL.

And the “AUC0-t, Geometric mean” value ([3]; 20 mg oral solution)?
Its value is 23.44 ng·h/mL.

And the “Cmax, Geometric mean” value ([3]; 20 mg oral solution)?
Its value is 16.48 ng/mL.

What about the “t1/2, Geometric mean” value ([3]; 20 mg oral solution) of the same compound?
The value was 2.91 h.

And the “tmax, Median” value ([3]; 20 mg oral solution)?
The value was 0.50 h.

What about the “AUC0-inf, Geometric mean” value ([3]; 20 mg oral tablet) of the same compound?
The value was 22.46 ng·h/mL.

What about the “AUC0-t, Geometric mean” value ([3]; 20 mg oral tablet) of the same compound?
Its value is 20.05 ng·h/mL.

And the “tmax, Median” value ([3]; 20 mg oral tablet)?
Its value is 0.75 h.

And the “t1/2, Geometric mean” value ([3]; 20 mg oral)?
Its value is 2.84 h.

And the “AUC0-inf, Geometric mean” value ([3]; 100 mg oral tablet)?
Its value is 180.84 ng·h/mL.

And the “AUC0-t, Geometric mean” value ([3]; 100 mg oral tablet)?
The value was 172.71 ng·h/mL.

What about the “Cmax, Geometric mean” value ([3]; 100 mg oral tablet) of the same compound?
Its value is 65.34 ng/mL.

And the “tmax, Median” value ([3]; 100 mg oral tablet)?
Its value is 0.75 h.

What about the “t1/2, Geometric mean” value ([3]; 100 mg oral) of the same compound?
The value was 7.66 h.

What about the t1/2 ([4]; 10 mg/kg oral gavage) of the same compound?
Its t1/2 is 0.6 h.

And the AUC0-t ([4]; 30 mg/kg oral gavage)?
Its AUC0-t is 575 ng·h/mL.

And the “median % TI in the liver vs vehicle control” value (liver of Crl:CD(SD) rats; female rats, 25 and 50 mg/kg/day oral gavage, three doses, p<0.001)?
Its value is “Statistically significant increases”.

What about the “DNA strand breaks in the liver (study conclusion)” value (liver of Crl:CD(SD) rats; male and female rats, oral gavage) of the same compound?
Its value is “evidence of causing an increase in DNA strand breaks”.

What about the “median % tail intensity (TI) in the liver vs vehicle control” value (liver of Crl:CD(SD) rats; male rats, 75 mg/kg/day oral gavage, three doses, p<0.001) of the same compound?
The value was “Statistically significant increases”.

And the “macroscopic examination after 3 doses” value (liver of Crl:CD(SD) rats; rat, in vivo)?
Its value is “no test item related lesions”.

For N[C@]1(c2ccccc2Cl)CCCCC1=O [S-norketamine], which “Toxicity (mitotic index)” value [5] is on record?
The value was “not observed at any dose”.

What about the “induction of structural and numerical chromosomal aberrations” value [5] of the same compound?
Its value is “negative”.
